Test results taken from ChEMBL document CHEMBL3526006, “Metabolite profiling of bendamustine in urine of cancer patients after administration of [14C]bendamustine” (Drug Metab Dispos, 2012).

What was measured:
Type in all cases: ADME, organism-based
[1] = Drug excretion in human urine treated with [14C]bendamustine at 120 mg/m'2, iv after 2 hrs by 60-min LC-LSC-MSn method; conditions: in vivo
[2] = Drug excretion in human urine assessed as retention time treated with [14C]bendamustine at 120 mg/m'2, iv after 2 hrs by 180 mins LC-LSC-MSn method
[3] = Drug excretion in human urine assessed as retention time treated with [14C]bendamustine at 120 mg/m'2, iv after 2 hrs by 60 mins LC-LSC-MSn method
[4] = Drug level in human urine treated with [14C]bendamustine at 120 mg/m'2, iv up to 168 hrs by 60-min LC-LSC-MSn method; conditions: in vivo
[5] = Total drug recovery in human at 120 mg/m'2, iv administered as single dose measured up to 3 weeks; conditions: in vivo, read-out: Drug recovery
[6] = Drug excretion in human urine assessed as 4-(6-((2-(2-amino-2-carboxyethylthio)ethyl)(2-hydroxyethyl)amino)-1-methyl-1H-benzo[d]imidazol-2-yl)-4-hydroxybutanoic acid formation at 120 mg/m'2, iv up to 168 hrs by 60-min LC-LSC-MSn method; conditions: in vivo
[7] = Drug recovery in human urine at 120 mg/m'2, iv administered as single dose measured up to 3 weeks; conditions: read-out: Drug recovery
[8] = Drug excretion in human urine assessed as 4-(6-(bis(2-hydroxyethyl)amino)-1-methyl-1H-benzo[d]imidazol-2-yl)butanoic acid formation at 120 mg/m'2, iv up to 168 hrs by 60-min LC-LSC-MSn method; conditions: in vivo
[9] = Drug excretion in human urine assessed as 4-(6-(bis(2-hydroxyethyl)amino)-1-methyl-1H-benzo[d]imidazol-2-yl)-4-hydroxybutanoic acid formation at 120 mg/m'2, iv up to 168 hrs by 60-min LC-LSC-MSn method; conditions: in vivo
[10] = Drug excretion in human urine assessed as 4-(6-((2-(2-amino-2-carboxyethylthio)ethyl)(2-hydroxyethyl)amino)-1-methyl-1H-benzo[d]imidazol-2-yl)butanoic acid formation at 120 mg/m'2, iv up to 168 hrs by 60-min LC-LSC-MSn method; conditions: in vivo
[11] = Drug excretion in human urine assessed as retention time at 120 mg/m'2, iv after 2 hrs by 180-min LC-LSC-MSn method

SMILES	Drug excretion [1] [%]	Retention_time [2] [min]	Retention_time [3] [min]	further results
Cn1c(CCCC(=O)O)nc2ccc(N(CCCl)CCOP(=O)(O)O)cc21	> 1	70.7	26.1	–
Cn1c(CCCC(=O)O)nc2ccc(N(CCO)CCS)cc21	> 1	64.4	24.2	–
Cn1c(CCCC(=O)O)nc2ccc(NCCCl)cc21	> 1	72.5	28.6	–
Cn1c(CCCC(=O)O)nc2ccc(NCC=O)cc21	> 1	29.4	16.9	–
Cn1c(CCCC(=O)O)nc2ccc(N(CCO)CCO)cc21	> 1	33.7	17.6	Drug excretion [4]: metabolite_detected
CC(=O)NC(CSCCN(CCCl)c1ccc2nc(CCCC(=O)O)n(C)c2c1)C(=O)O (centres undefined)	> 1	97.6	32.2	–
Cn1c(CCCC(=O)O)nc2ccc(N(CCS)CCCl)cc21	> 1	99.4	35.1	–
Cn1c(C(O)CCC(=O)O)nc2ccc(N(CCCl)CCCl)cc21 (centres undefined)	> 1	104.5	35.1	–
Cn1c(C(O)CCC(=O)O)nc2ccc(N(CCO)CCCl)cc21 (centres undefined)	> 1	71.3	27.1	–
O=C(O)CCC(O)c1nc2ccc(N(CCCl)CCCl)cc2[nH]1 (centres undefined)	> 1	105.1	35.3	–
Cl.Cn1c(CCCC(=O)O)nc2ccc(N(CCCl)CCCl)cc21	–	–	–	dose excreted at 504 h [5]: 76%; Drug excretion [6]: metabolite_detected; dose excreted at 504 h [7]: 3%; Drug excretion [8]: metabolite_detected; Drug excretion [9]: metabolite_detected; Drug excretion [10]: metabolite_detected; Retention_time [11]: 36.3 min
CN1CC(=O)N=C1NCCN(CCO)c1ccc2nc(CCCC(=O)O)n(C)c2c1	> 1	24.2	13.9	–
Cn1c(CCCC(=O)O)nc2ccc(N(CCO)CCSCC(N)C(=O)O)cc21 (centres undefined)	> 1	29	15.8	Drug excretion [4]: metabolite_detected
Cn1c(C(O)CCC(=O)O)nc2ccc(N(CCO)CCOP(=O)(O)O)cc21 (centres undefined)	> 1	14.7	7.9	–
CN1CC(=O)N=C1NCCN(CCCl)c1ccc2nc(CCCC(=O)O)n(C)c2c1	> 1	54.6	23.1	–
Cn1c(C(O)CCC(=O)O)nc2ccc(NCCCl)cc21 (centres undefined)	> 1	57.3	25.4	–
Cn1c(CCCC(=O)O)nc2ccc(N(CCO)CCOP(=O)(O)O)cc21	> 1	22	12.1	–
Cn1c(C(O)CCC(=O)O)nc2ccc(N(CCO)CCO)cc21 (centres undefined)	> 1	23.8	13.3	Drug excretion [4]: metabolite_detected
Cn1c(CCCC(=O)O)nc2ccc(N(CCCl)CCSCC(N)C(=O)O)cc21 (centres undefined)	> 1	73.7	26.5	–
Cn1c(CCCC(=O)O)nc2ccc(N(CCO)CCCl)cc21	> 1	82.7	29.2	–
O=C(O)CCCc1nc2ccc(N(CCO)CCO)cc2[nH]1	> 1	18.7	10.9	–
Cn1c(C(O)CCC(=O)O)nc2ccc(N(CCO)CCSCC(N)C(=O)O)cc21 (centres undefined)	> 1	19.7	11	Drug excretion [4]: metabolite_detected
